In patent US20190274303A1, “USE OF A DIFLUORO-(2-HYDROXYPROPYL)PYRIDINE COMPOUND AS A FUNGICIDE FOR CONTROL OF PHYTOPATHOGENIC FUNGI OF BARLEY” (Dow AgroSciences LLC, priority 2016, published 2019):

Tests used:
Type in all cases: in vivo
[1] = test system: Rhyncosporium secalis (RHYNSE); experiment: Field assessment of barley leaf scald, Trial 1 (EC formulation alone or with adjuvants); details: for % Control RHYNSE: based on AUDPC, winter barley, field, EC
Procedure: Field assessment of Rhyncosporium secalis (RHYNSE) in barley:
Trial 1: A fungicidal treatment containing Compound I was assessed against barley scald (RHYNSE) in two separate field trials. In the first trial, a fungicidal treatment containing an EC formulation of compound I by itself and in combination with two separate adjuvants was sprayed on barley plants at rates of 50, 100 and 150 grams active ingredient per hectare (g ai/ha). Fungicidal treatments were applied at B47-51 (curative, 3% infection on leaf 2) growth stage of winter barley (HORVW, Lomerit variety) under natural infection of RHYNSE. The treatment was part of an experimental trial designed as a randomized complete block with four replications and a plot of approximately 2×3 m. Compound I was applied at water volume of 200 L/ha, using a backpack precision plot sprayer (BICYCAIR, Flat Fan Air Assisted Nozle) and pressurized at 220 kPa.
Disease severity was recorded as a percentage of visual diseased foliage on whole plot. Barley leaf scald infection was assessed several times during the growing season with a final assessment 39 days after application of compound I. The disease infection was recorded following EPPO PP1/26 guideline prescriptions. Area under the disease progress curve (AUDPC) was calculated for each plot using the sets of recorded severity data. Relative AUDPC (% control based on AUDPC) was calculated as percent of the nontreated control.
(§1) In each case of the following Tables, the rating scale of percent control based on AUDPC is as follows: […]

[2] = test system: Rhyncosporium secalis (RHYNSE); experiment: Field assessment of barley leaf scald, Trial 2 (EC and SC formulations); details: based on AUDPC, winter barley
Source text: (§2) Trial 2: Fungicidal treatments of Compound I were applied using two separate adjuvant systems. In the first system, an EC formulation of compound I was tank mixed with Agnique BP-420 (50%) at an active:adjuvant ratio of 1:2. The second adjuvant system was an SC formulation of Compound I tank mixed with Agnique BP-420 EW (38.5%) at an active:adjuvant ratio of 1:2 and Agnique FOH TDA-9 (30% w/w) applied at 0.33% V/V. Both the EC and SC formulation was sprayed on barley plants at rates of 25, 50, 75, 100, 150, 200 and 250 grams active ingredient per hectare (g ai/ha). Fungicidal treatments were applied at B39 (early curative, 1% infection on leaf 1) growth stage of winter barley (HORVW, Maris Otter variety) under natural infection of RHYNSE. The treatment was part of an experimental trial designed as a randomized complete block with four replications.
Disease severity was recorded as a percentage of visual diseased foliage on whole plot. Barley leaf scald infection was recorded following EPPO PP1/26 guideline prescriptions. Area under the disease progress curve (AUDPC) was calculated for each plot using the sets of recorded severity data. Relative AUDPC (% control based on AUDPC) was calculated as percent of the nontreated control.
as §1

Puccinia hordei (PUCCHD) = experiment: Field assessment of barley rust; details: for Percent Control PUCCHD: based on AUDPC, winter barley, field
Procedure: Field Assessment of Puccinia hordei (PUCCHD) in Barley:
as §2, with “A fungicidal treatment containing Compound I was assessed against barley rust (PUCCHD) in two separate field trials. In each trial, fungicidal” for “Trial 2: Fungicidal”, “Otter and Lomerit” for “Otter”, “PUCCHD.” for “RHYNSE.”
Disease severity was recorded as a percentage of visual diseased foliage on whole plot. Barley rust infection was recorded following EPPO PP1/26 guideline prescriptions. Area under the disease progress curve (AUDPC) was calculated for each plot using the sets of recorded severity data. Relative AUDPC (% control based on AUDPC) was calculated as percent of the nontreated control.
as §1

[3] = 25 g ai/ha, EC + Agnique BP-420
[4] = 25 g ai/ha, SC + Agnique BP-420 EW and Agnique FOH TDA-9
[5] = 50 g ai/ha, EC + Agnique BP-420
[6] = 75 g ai/ha, EC + Agnique BP-420
[7] = 75 g ai/ha, SC + Agnique BP-420 EW and Agnique FOH TDA-9
[8] = 100 g ai/ha, EC + Agnique BP-420
[9] = 100 g ai/ha, SC + Agnique BP-420 EW and Agnique FOH TDA-9
[10] = 150 g ai/ha, EC + Agnique BP-420
[11] = 150 g ai/ha, SC + Agnique BP-420 EW and Agnique FOH TDA-9
[12] = 200 g ai/ha, EC + Agnique BP-420
[13] = 200 g ai/ha, SC + Agnique BP-420 EW and Agnique FOH TDA-9
[14] = 250 g ai/ha, EC + Agnique BP-420
[15] = 250 g ai/ha, SC + Agnique BP-420 EW and Agnique FOH TDA-9

SMILES: N#Cc1ccc(Oc2ccc(C(F)(F)C(O)(Cn3ncnc3S)c3ccc(F)cc3F)nc2)cc1 (stereo not drawn) [Compound I, 4-((6-(2-(2,4-difluorophenyl)-1,1-difluoro-2-hydroxy-3-(5-mercapto-1H-1,2,4-triazol-1-yl)propyl)pyridin-3-yl)oxy)benzonitrile]
- % Control RHYNSE ([1]; 50 g ai/ha, Agnique BP-420 (50% w/w at 0.15% v/v)): C (26-50)
- % Control RHYNSE ([1]; 50 g ai/ha, Agnique BP-420 (50% w/w at 0.3% v/v)): B (51-74)
- % Control RHYNSE ([1]; 50 g ai/ha, Agnique SBO-10 (0.15% v/v)): C (26-50)
- % Control RHYNSE ([1]; 50 g ai/ha, adjuvant None): C (26-50)
- % Control RHYNSE ([1]; 100 g ai/ha, Agnique BP-420 (50% w/w at 0.15% v/v)): B (51-74)
- % Control RHYNSE ([1]; 100 g ai/ha, Agnique BP-420 (50% w/w at 0.3% v/v)): B (51-74)
- % Control RHYNSE ([1]; 100 g ai/ha, Agnique SBO-10 (0.15% v/v)): B (51-74)
- % Control RHYNSE ([1]; 100 g ai/ha, adjuvant None): C (26-50)
- % Control RHYNSE ([1]; 150 g ai/ha, Agnique BP-420 (50% w/w at 0.15% v/v)): B (51-74)
- % Control RHYNSE ([1]; 150 g ai/ha, Agnique BP-420 (50% w/w at 0.3% v/v)): B (51-74)
- % Control RHYNSE ([1]; 150 g ai/ha, Agnique SBO-10 (0.15% v/v)): B (51-74)
- % Control RHYNSE ([1]; 150 g ai/ha, adjuvant None): C (26-50)
- fungicidal effect on Rhyncosporium secalis ([1]; leaf scald of barley, general statement): significant fungicidal effect
- Percent Control RHYNSE [2, 3]: C (26-50)
- Percent Control RHYNSE [2, 4]: C (26-50)
- Percent Control RHYNSE [2, 5]: C (26-50)
- Percent Control RHYNSE ([2]; 50 g ai/ha, SC + Agnique BP-420 EW and Agnique FOH TDA-9): C (26-50)
- Percent Control RHYNSE [2, 6]: B (51-74)
- Percent Control RHYNSE [2, 7]: C (26-50)
- Percent Control RHYNSE [2, 8]: B (51-74)
- Percent Control RHYNSE [2, 9]: C (26-50)
- Percent Control RHYNSE [2, 10]: B (51-74)
- Percent Control RHYNSE [2, 11]: B (51-74)
- Percent Control RHYNSE [2, 12]: B (51-74)
- Percent Control RHYNSE [2, 13]: B (51-74)
- Percent Control RHYNSE [2, 14]: B (51-74)
- Percent Control RHYNSE [2, 15]: B (51-74)
- fungicidal effect on Puccinia Hordei (Puccinia hordei (PUCCHD); barley rust, general statement): significant fungicidal effect
- Percent Control PUCCHD (Puccinia hordei (PUCCHD); [3]): B (51-74)
- Percent Control PUCCHD (Puccinia hordei (PUCCHD); [4]): B (51-74)
- Percent Control PUCCHD (Puccinia hordei (PUCCHD); [5]): B (51-74)
- Percent Control PUCCHD (Puccinia hordei (PUCCHD); 50 g ai/ha, Sc (SC + Agnique BP-420 EW and Agnique FOH TDA-9)): B (51-74)
- Percent Control PUCCHD (Puccinia hordei (PUCCHD); [6]): A (75-100)
- Percent Control PUCCHD (Puccinia hordei (PUCCHD); [7]): B (51-74)
- Percent Control PUCCHD (Puccinia hordei (PUCCHD); [8]): A (75-100)
- Percent Control PUCCHD (Puccinia hordei (PUCCHD); [9]): A (75-100)
- Percent Control PUCCHD (Puccinia hordei (PUCCHD); [10]): A (75-100)
- Percent Control PUCCHD (Puccinia hordei (PUCCHD); [11]): A (75-100)
- Percent Control PUCCHD (Puccinia hordei (PUCCHD); [12]): A (75-100)
- Percent Control PUCCHD (Puccinia hordei (PUCCHD); [13]): A (75-100)
- Percent Control PUCCHD (Puccinia hordei (PUCCHD); [14]): A (75-100)
- Percent Control PUCCHD (Puccinia hordei (PUCCHD); [15]): A (75-100)
